Assay results as given in PubChem BioAssay (NCI).
Where “and” joins values, the source holds several entries; their conditions need not be identical. Equal values may be shown once.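 How tested: cells in 96-well plates exposed to compound for 48 hours at five concentrations. The concentration for 50% growth inhibition is given as GI50. TGI denotes the concentration required for complete inhibition of growth.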

Assays:
Experiment in all cases: DTP human tumour cell line panel, 48 h
[1] = test system: SF-295 CNS
[2] = test system: OVCAR-8 ovarian
[3] = test system: TK-10 renal
[4] = test system: HS 578T breast
[5] = test system: SW-620 colon
[6] = test system: OVCAR-3 ovarian
[7] = test system: SK-MEL-2 melanoma
[8] = test system: MALME-3M melanoma
[9] = test system: DMS 273 small cell lung
[10] = test system: SNB-78 CNS

| Compound | GI50 [1] | TGI [1] | GI50 [2] | TGI [2] | GI50 [3] | TGI [3] | GI50 [4] | TGI [4] | GI50 [5] | TGI [5] | GI50 [6] | TGI [6] | GI50 [7] | TGI [7] | GI50 [8] | TGI [8] | GI50 [9] | TGI [9] | TGI [10] |
| --- | --- | --- | --- | --- | --- | --- | --- | --- | --- | --- | --- | --- | --- | --- | --- | --- | --- | --- | --- |
| COc1cc(/C=C/C(=O)/C=C/c2cc3ccc(Cl)cc3n(Cc3ccccc3)c2=O)ccc1O | 3 µM | 10.8 µM | 0.497 µM | 11.7 µM | 2.44 µM | 5.5 µM | 3.79 µM | 62 µM | 1.56 µM | 4.33 µM | 0.71 µM | 2.43 µM | 1.92 µM | 4.97 µM | 1.94 µM | 4.64 µM |  |  |  |
| O=C(/C=C/C(Cl)(Cl)Cl)Nc1ccc(Cl)cc1 |  | 28.8 µM |  | > 77.6 µM |  | 5.73 µM |  | 54.3 µM |  | 14 µM |  | 17.3 µM |  | 18.1 µM |  | 18.9 µM |  |  |  |
| Cc1ccc(-c2nc(N3CCNCC3)c3oc(-c4ccccc4)nc3n2)cc1 | 1.69 µM | 3.16 µM | 1.95 µM | 4.15 µM | 1.68 µM | 3.09 µM | 2.53 µM | 7.69 µM | 2.06 µM | 3.88 µM | 1.96 µM | 3.48 µM | 2.64 µM | 6.01 µM | 2.07 µM | 3.75 µM |  |  |  |
| CCOC(=O)/C(C#N)=C1\SS/C(=C(/C#N)C(=O)OCC)S1 | > 100 µM | > 100 µM | 20.3 µM | 41.1 µM | 6.81 µM | 20.3 µM | 47.9 µM | > 100 µM | 5.4 µM | 32.7 µM | 14.5 µM | 28.8 µM | 18.7 µM | 40.2 µM | 11.6 µM | 27.4 µM |  |  |  |
| CC(=O)[CH-]C(=O)c1ccccc1.CC(=O)[CH-]C(=O)c1ccccc1.CC(C)CCC[C@H](C)C1CCC2[C@@H]3CC=C4C[C@@H]([O-])CC[C@]4(C)C3CC[C@@]21C.CC(C)CCC[C@H](C)C1CCC2[C@@H]3CC=C4C[C@@H]([O-])CC[C@]4(C)C3CC[C@@]21C.Cl.[Ti+4] (stereo not given in full) | > 25 µM | > 25 µM | > 25 µM | > 25 µM | > 25 µM | > 25 µM |  |  | > 25 µM | > 25 µM | > 25 µM | > 25 µM | > 25 µM | > 25 µM | 21.4 µM | > 25 µM | > 25 µM | > 25 µM |  |
| N#Cc1ccccc1C#C/C=C\C#CC#C/C=C\C#Cc1ccccc1C#N | 16.3 µM | 53 µM | 47.6 µM | > 100 µM | 23.9 µM | 83 µM | 5.38 µM | 78.8 µM | 9.1 µM | > 100 µM | 4.55 µM | 21.4 µM | 22.1 µM | 62.7 µM | 14.6 µM | 29.8 µM |  |  |  |
| O=C(CO[N+](=O)[O-])OC/C=C/c1ccccc1 |  | > 100 µM |  | > 100 µM |  | > 100 µM |  |  |  | > 100 µM |  | > 100 µM |  | > 100 µM |  | > 100 µM |  | > 100 µM |  |
| CCCCN=C(N)c1ccc(N2CCCN(c3ccc(C(N)=NCCCC)cc3)CC2)cc1 | 6.39 µM | 57.6 µM | 14.1 µM | > 100 µM | 11.4 µM | > 84.7 µM | 5.02 µM | > 90.7 µM | 13.6 µM | > 100 µM | 8.73 µM | > 81.7 µM | 12.3 µM | 44.6 µM | 1 µM | 26.2 µM |  |  |  |
| Cc1ccc(NC(=O)Nc2c(Cl)cccc2Cl)cn1 | 5.49 µM | > 100 µM | 19.4 µM | > 100 µM | 18.1 µM | 41.6 µM | 1.94 µM | 6.89 µM | 4.24 µM | > 100 µM | 4.5 µM | 22.7 µM | 5.87 µM | 27.5 µM | 8.57 µM | > 100 µM |  |  |  |
| O=Cc1c(-c2ccccc2)[nH]c2ccccc2c1=O |  | > 100 µM |  | > 100 µM |  | > 100 µM |  | 98.9 µM |  | > 100 µM |  | > 100 µM |  | > 100 µM |  | > 100 µM |  |  |  |
| Nc1cc(C(F)(F)F)c(-c2cc(N3CCOCC3)nc(N3CCOCC3)n2)cn1 | 0.463 µM and 0.613 µM | 2.51 µM and 4.26 µM | 1.67 µM and 1.55 µM | > 9.24 µM and 11.8 µM | 0.303 µM and 0.338 µM | 2.75 µM and 2.15 µM | 0.313 µM and 0.522 µM | 1.55 µM and 5.2 µM | 1 µM and 0.717 µM | > 100 µM | 0.919 µM and 1.03 µM | 4.71 µM and 4.45 µM | 0.678 µM and 0.385 µM | 3.39 µM and 2.27 µM | 0.325 µM and 0.369 µM | 2.53 µM and 4.95 µM |  |  |  |
| COc1ccc(C(=O)O[C@H]2[C@H](O[C@H]3[C@@H](O)COC(O[C@H]4C[C@H]5[C@@H]6CC=C7C[C@@H](O)CC[C@]7(C)[C@H]6CC[C@]5(C)[C@H]4[C@H](C)C(=O)CCC(C)C)[C@@H]3OC(C)=O)OC[C@@H](O)[C@@H]2O)c(C)c1 (stereo not given in full) | < 0.01 µM | < 0.01 µM | 20.1 µM | > 100 µM | 0.27 µM | 34.8 µM | < 0.01 µM | 0.0282 µM | < 0.01 µM | 0.187 µM | 11.1 µM | 28.9 µM | < 0.01 µM | 3.23 µM | 0.0127 µM | 11.6 µM |  |  |  |
| COC1OC(CBr)C(OC(=O)c2ccccc2)C(OS(=O)(=O)c2ccc(C)cc2)C1Br (stereo not given) |  | > 100 µM |  | > 100 µM |  | > 100 µM |  |  |  | > 100 µM |  | > 100 µM |  | > 100 µM |  | > 100 µM |  | > 100 µM | > 100 µM |
| COc1ccc(-c2ccccc2)c2[nH]c3c(c12)CCNC3=O |  | > 100 µM |  | > 100 µM |  | > 100 µM |  |  |  | > 100 µM |  | > 100 µM |  |  |  | > 100 µM |  | > 100 µM | > 100 µM |
| O=C(CCl)Nc1cc(Cl)c(Cl)cc1Cl |  | > 10 µM |  | 3.1 µM |  | 3.27 µM |  | 8.56 µM |  | 5.72 µM |  | 3.31 µM |  | 3.44 µM |  | 2.88 µM |  |  |  |
| NC(Cc1c[nH]c2ccc(F)cc12)C(=O)O (stereo not given) | 609 µM | 1500 µM | 751 µM | > 2500 µM | > 2500 µM | > 2500 µM | 506 µM | 1590 µM | 1170 µM | > 2500 µM | 724 µM | > 2500 µM | 2250 µM | > 2500 µM | 490 µM | 1130 µM |  |  |  |
| Cc1ccc(/C=C/c2c(C(=O)/C=C/c3ccc(Cl)cc3)c(C)nc3ccccc23)cc1 | 1.74 µM | 3.23 µM | 2.17 µM | 6.46 µM | 2.53 µM | 4.84 µM | 2.75 µM | 8.66 µM | 1.9 µM | 5.11 µM | 1.84 µM | 3.51 µM | 2.01 µM | 4.96 µM | 1.74 µM | 3.17 µM |  |  |  |
